The source of these data is patent publication US7189680B2, “5-halo-6-aryl[1,2,4]triazolo[1,5-a]pyrimidin-7-amines” (Bayer Cropscience AG, priority 2001, dated 2007).

The first data set in a line: logP determination by HPLC (EEC directive 79/831 Annex V. A8). The class given is physicochemical. To be noted: HPLC gradient method, acetonitrile/0.1% aqueous phosphoric acid; Table 1. Here is the method: *) The logP values were determined in accordance with EEC directive 79/831 Annex V. A8 by HPLC (gradient method, acetonitrile/0.1% aqueous phosphoric acid)
For the compound `Fc1cc(F)c(-c2c(Cl)nc3ncnn3c2NOCc2cc(Cl)cc(Cl)c2)c(F)c1` [Example 80], the “logP*” value was determined as 3.73. Turning to `CN(C)Nc1c(-c2ccccc2F)c(Cl)nc2ncnn12` [Example 87], the “logP*” value is recorded as 2.26.

For `CON(C)c1c(-c2c(F)c(F)c(F)c(F)c2F)c(Cl)nc2ncnn12` [Example 77], the “logP*” value is reported as 3.06. Same read-out and setting: to `CC(C)CONc1c(-c2ccccc2F)c(Cl)nc2ncnn12` [Example 56] belongs 2.79; to `Fc1cc(F)c(-c2c(Cl)nc3ncnn3c2NOCc2ccccc2)c(F)c1` [Example 12], 2.92; to `Fc1cccc(F)c1-c1c(Cl)nc2ncnn2c1NOCc1cccc(C(F)(F)F)c1` [Example 108], 3.3. On to `CCONc1c(-c2c(F)cccc2F)c(Cl)nc2ncnn12` [Example 102], for which the “logP*” value turned out to be 2.18. On to `CCC(C)ONc1c(-c2c(F)cccc2F)c(Cl)nc2ncnn12` (centres unmarked) [Example 48], for which the “logP*” value turned out to be 2.67.

Turning to `CC(C)CN(N)c1c(-c2cc(C(F)(F)F)ccc2Cl)c(Cl)nc2ncnn12` [Example 140], the “logP*” value is on record as 3.51. With `Fc1cc(F)c(-c2c(Cl)nc3ncnn3c2NOCc2ccccc2Cl)c(F)c1` [Example 81], the “logP*” value is 3.22. Same read-out and setting: under `CONc1c(-c2ccccc2F)c(Cl)nc2ncnn12` [Example 67] stands 1.89; under `Fc1cc(F)c(-c2c(Cl)nc3ncnn3c2NOC2CCCC2)c(F)c1` [Example 14], 2.94. Still for that read-out and setting: under `Fc1c(F)c(F)c(-c2c(Cl)nc3ncnn3c2NOCc2ccccc2)c(F)c1F` [Example 112] stands 3.37. For the compound `CC(=NNc1c(-c2c(F)cc(F)cc2F)c(Cl)nc2ncnn12)C(F)(F)F` [Example 165], the “logP*” value came out at 3.07.

On to `CC(C)(C)ONc1c(-c2ccccc2F)c(Cl)nc2ncnn12` [Example 65], for which the “logP*” value was 2.58. For the compound `Fc1c(F)c(F)c(-c2c(Cl)nc3ncnn3c2NOCc2cccc(C(F)(F)F)c2)c(F)c1F` [Example 118], the “logP*” value turned out to be 3.72. On the same count and under the same terms, under `Fc1ccc(CONc2c(-c3ccccc3F)c(Cl)nc3ncnn23)cc1` [Example 62] stands 2.82; under `COC(=O)N(C)Nc1c(-c2ccccc2F)c(Cl)nc2ncnn12` [Example 93], 1.8; under `Fc1c(F)c(F)c(-c2c(Cl)nc3ncnn3c2NOCc2ccc(Cl)cc2)c(F)c1F` [Example 71], 3.62.

`CC(C)CONc1c(-c2c(F)c(F)c(F)c(F)c2F)c(Cl)nc2ncnn12` [Example 69]: the “logP*” value came out at 3.42. Still for that read-out and setting: under `CC=NN(CC1CC1(Cl)Cl)c1c(-c2c(F)cc(F)cc2F)c(Cl)nc2ncnn12` (centres unmarked) [Example 167] stands 3.72; under `Fc1c(F)c(F)c(-c2c(Cl)nc3ncnn3c2NOCc2ccc(C(F)(F)F)cc2)c(F)c1F` [Example 115], 3.77.

Regarding `CC(C)CNNc1c(-c2c(Cl)c(F)cc(C(F)(F)F)c2Cl)c(Cl)nc2ncnn12` [Example 44], the “logP*” value was determined as 3.89. On to `CCCCONc1c(-c2c(F)cccc2F)c(Cl)nc2ncnn12` [Example 109], for which the “logP*” value is 2.83. Same read-out and setting: to `Fc1cccc(F)c1-c1c(Cl)nc2ncnn2c1NOCc1cccc(Cl)c1` [Example 46] belongs 3.12; to `Fc1ccc(CONc2c(-c3c(F)c(F)c(F)c(F)c3F)c(Cl)nc3ncnn23)cc1` [Example 72], 3.3; to `Fc1c(F)c(F)c(-c2c(Cl)nc3ncnn3c2NOCc2cccc(Cl)c2)c(F)c1F` [Example 117], 3.64. Consider `Fc1c(F)c(F)c(-c2c(Cl)nc3ncnn3c2NOCc2ccccc2Cl)c(F)c1F` [Example 116], for which the “logP*” value is 3.58. Turning to `CC1(NNc2c(-c3c(F)cc(F)cc3F)c(Cl)nc3ncnn23)CCCCC1` [Example 27], the “logP*” value is reported as 3.68. Turning to `CCC(C)NNc1c(-c2cc(C(F)(F)F)ccc2Cl)c(Cl)nc2ncnn12` (centres unmarked) [Example 149], the “logP*” value is given as 3.47.

`NN(c1c(-c2c(Cl)cccc2Cl)c(Cl)nc2ncnn12)C1CCCC1` [Example 161]: the “logP*” value turned out to be 3.37. On to `CONc1c(-c2c(F)cc(F)cc2F)c(Cl)nc2ncnn12` [Example 31], for which the “logP*” value came out at 2.12. On the same count and under the same terms, under `Fc1cc(F)c(-c2c(Cl)nc3ncnn3c2NOCc2nc(-c3ccccc3)cs2)c(F)c1` [Example 9] stands 3.21; under `CC(C)CN(N)c1c(-c2c(Cl)cccc2Cl)c(Cl)nc2ncnn12` [Example 155], 3.17.

`NN(CC1CCC1)c1c(-c2c(F)cc(F)cc2F)c(Cl)nc2ncnn12` [Example 169]: the “logP*” value was determined as 3.06. Regarding `CCNNc1c(-c2ccccc2F)c(Cl)nc2ncnn12` [Example 89], the “logP*” value is given as 2.06.

With `Fc1cc(F)c(-c2c(Cl)nc3ncnn3c2NNC2CCCCC2)c(F)c1` [Example 35], the “logP*” value is recorded as 3.28.

With `CC(=O)NN(CC(C)C)c1c(-c2c(F)cc(F)cc2F)c(Cl)nc2ncnn12` [Example 157], the “logP*” value came out at 2.25.

As to `Fc1ccccc1-c1c(Cl)nc2ncnn2c1NOCc1ccccc1Cl` [Example 59], the “logP*” value was determined as 3.06. On the same count and under the same terms, to `CONc1c(-c2c(F)cccc2F)c(Cl)nc2ncnn12` [Example 32] belongs 1.92; to `NN(CC1CC1)c1c(-c2c(Cl)cccc2Cl)c(Cl)nc2ncnn12` [Example 164], 2.8.

`CCC(C)N(N)c1c(-c2cccc3c2OC(F)(F)O3)c(Cl)nc2ncnn12` (centres unmarked) [Example 150]: the “logP*” value is reported as 3.27. On the same count and under the same terms, to `Fc1cc(F)c(-c2c(Cl)nc3ncnn3c2NNCC(F)(F)F)c(F)c1` [Example 19] belongs 2.47; to `CON(C)c1c(-c2ccccc2F)c(Cl)nc2ncnn12` [Example 68], 2.33. With `CC(C)=NN(CC1CCCCC1)c1c(-c2c(F)cc(F)cc2F)c(Cl)nc2ncnn12` [Example 26], the “logP*” value was determined as 4.5. On the same count and under the same terms, under `CC(C)(C)NNc1c(-c2c(F)cc(F)cc2F)c(Cl)nc2ncnn12` [Example 21] stands 2.86; under `CCC(C)N(N)c1c(-c2c(F)cc(F)cc2F)c(Cl)nc2ncnn12` (centres unmarked) [Example 139], 2.93.

Turning to `CCC(C)N(N)c1c(-c2cc(C(F)(F)F)ccc2Cl)c(Cl)nc2ncnn12` (centres unmarked) [Example 146], the “logP*” value was determined as 3.99. Still for that read-out and setting: to `NN(CC1CCCO1)c1c(-c2c(F)cc(F)cc2F)c(Cl)nc2ncnn12` (centres unmarked) [Example 127] belongs 2.55. Still for that read-out and setting: under `Fc1cccc(F)c1-c1c(Cl)nc2ncnn2c1NOCc1c(Cl)cccc1Cl` [Example 110] stands 3.2; under `CC(C)CONc1c(-c2c(F)cccc2F)c(Cl)nc2ncnn12` [Example 8], 2.78.

Take `NN(c1c(-c2c(F)cc(F)cc2F)c(Cl)nc2ncnn12)C1CCCCCC1` [Example 141]: the “logP*” value worked out at 3.66.

As for `CC(C)CN(N)c1c(-c2ccc(C(F)(F)F)cc2F)c(Cl)nc2ncnn12` [Example 135], the “logP*” value is given as 3.43. With `CON(C)c1c(-c2c(F)cc(F)cc2F)c(Cl)nc2ncnn12` [Example 16], the “logP*” value was determined as 2.63. Still for that read-out and setting: under `CCCCONc1c(-c2c(F)c(F)c(F)c(F)c2F)c(Cl)nc2ncnn12` [Example 119] stands 3.49; under `NN(CC1CC1(Cl)Cl)c1c(-c2c(F)cc(F)cc2F)c(Cl)nc2ncnn12` (centres unmarked) [Example 166], 3.11.

Consider `N#CCCNNc1c(-c2ccccc2F)c(Cl)nc2ncnn12` [Example 94], for which the “logP*” value came out at 1.82.

For the compound `CC(C)CN(N)c1c(-c2c(Cl)c(F)cc(C(F)(F)F)c2Cl)c(Cl)nc2ncnn12` [Example 126], the “logP*” value is on record as 2.58. Take `Cc1ccc(CONc2c(-c3c(F)cc(F)cc3F)c(Cl)nc3ncnn23)cc1` [Example 13]: the “logP*” value is given as 3.25. On the same count and under the same terms, under `Fc1c(F)c(F)c(-c2c(Cl)nc3ncnn3c2NOCc2cc(Cl)cc(Cl)c2)c(F)c1F` [Example 113] stands 4.07; under `C=CCONc1c(-c2ccccc2F)c(Cl)nc2ncnn12` [Example 64], 2.27. Take `NN(CC1CC1(Cl)Cl)c1c(-c2c(F)cccc2Cl)c(Cl)nc2ncnn12` (centres unmarked) [Example 171]: the “logP*” value is 3.11. Regarding `Fc1cc(F)c(-c2c(Cl)nc3ncnn3c2NNCC2CCCO2)c(F)c1` (centres unmarked) [Example 52], the “logP*” value came out at 2.44. Same read-out and setting: under `CC(C)CN(N)c1c(-c2c(F)cccc2Cl)c(Cl)nc2ncnn12` [Example 138] stands 2.94; under `Fc1cc(F)c(-c2c(Cl)nc3ncnn3c2NOCc2cccc(C(F)(F)F)c2)c(F)c1` [Example 84], 3.39; under `CCC(C)ONc1c(-c2c(F)cc(F)cc2F)c(Cl)nc2ncnn12` (centres unmarked) [Example 41], 2.86. Turning to `NN(CCN1CCOCC1)c1c(-c2c(F)cc(F)cc2F)c(Cl)nc2ncnn12` [Example 129], the “logP*” value is listed as 1.1. Regarding `Fc1ccccc1-c1c(Cl)nc2ncnn2c1NOCc1ccc(Cl)cc1Cl` [Example 97], the “logP*” value is 3.6.

As to `CC(C)CNNc1c(-c2c(Cl)cccc2Cl)c(Cl)nc2ncnn12` [Example 156], the “logP*” value was 3.18.

`CCC(C)NNc1c(-c2cc(C(F)(F)F)ccc2Cl)c(Cl)nc2ncnn12` (centres unmarked) [Example 147]: the “logP*” value is given as 3.95. In the case of `Fc1cccc(F)c1-c1c(Cl)nc2ncnn2c1NOCc1ccccc1` [Example 103], the “logP*” value was determined as 2.8. Take `CC(C)N(N)c1c(-c2c(F)cc(F)cc2F)c(Cl)nc2ncnn12` [Example 133]: the “logP*” value is given as 2.62. Same read-out and setting: under `Fc1cc(F)c(-c2c(Cl)nc3ncnn3c2NOCc2c(Cl)cccc2Cl)c(F)c1` [Example 86] stands 3.32; under `Fc1ccccc1-c1c(Cl)nc2ncnn2c1NOCc1ccc(Cl)cc1` [Example 61], 3.16.

Staying with this data set, now noted: HPLC gradient method, acetonitrile/0.1% aqueous phosphoric acid; Table 1; read-out: logP*.
As for `C=CCNNc1c(-c2c(F)cc(F)cc2F)c(Cl)nc2ncnn12` [Example 24], the chromatographic logP amounted to 2.48.

The data set is the same for the next values; noted with them: Table 2, carbamates of formula (VIII).
Usually logP stands for a log measure of how a compound divides between an organic and an aqueous phase. Read a low logP as a more hydrophilic compound. Consider `CCOC(=O)N(CC(C)C)OC` [Example 178], for which the log partition coefficient (logP) came out at 2.38. On the same count and under the same terms, to `C=C(C)CN(OC)C(=O)OCC` [Example 179] belongs 2.06.
